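Grown in 96-well plates, cells were treated for 48 hours with each compound at five concentrations. Insufficient inhibition: endpoint recorded as highest concentration tested. TGI: concentration producing complete growth inhibition.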
Tests used:
Test in all cases: NCI anticancer screen, dose series, 48 h
[1] = system: SK-OV-3 ovarian
[2] = system: HCT-116 colon
[3] = system: DU-145 prostate
[4] = system: LOX IMVI melanoma
[5] = system: CAKI-1 renal
[6] = system: 786-0 renal
[7] = system: T-47D breast
[8] = system: M14 melanoma
[9] = system: UACC-62 melanoma
[10] = system: SNB-75 CNS
[11] = system: EKVX NSCLC
[12] = system: HCC-2998 colon
[13] = system: U251 CNS
[14] = system: K-562 leukemia
[15] = system: MDA-N
[16] = system: OVCAR-5 ovarian
[17] = system: SF-295 CNS
[18] = system: HOP-92 NSCLC
[19] = system: OVCAR-4 ovarian
[20] = system: ACHN renal
[21] = system: HT29 colon
[22] = system: SK-MEL-5 melanoma
[23] = system: RPMI-8226 leukemia
[24] = system: KM12 colon
[25] = system: OVCAR-3 ovarian
[26] = system: SK-MEL-28 melanoma
[27] = system: MCF7 breast
[28] = system: COLO 205 colon
[29] = system: NCI-H226 lung
[30] = system: UACC-257 melanoma
[31] = system: SF-539 CNS
[32] = system: HOP-62 NSCLC
[33] = system: RXF 393 renal
[34] = system: NCI-H23 lung
[35] = system: HS 578T breast
[36] = system: PC-3 prostate
[37] = system: MOLT-4 leukemia
[38] = system: SNB-19 CNS
[39] = system: IGROV1 ovarian
[40] = system: MDA-MB-435
[41] = system: MDA-MB-231 breast
[42] = system: CCRF-CEM leukemia
[43] = system: BT-549 breast
[44] = system: TK-10 renal
[45] = system: A549 NSCLC
[46] = system: SF-268 CNS
[47] = system: UO-31 renal
[48] = system: SK-MEL-2 melanoma
[49] = system: HL-60(TB) leukemia
[50] = system: SW-620 colon
[51] = system: NCI-H460 lung
[52] = system: SN12C renal
[53] = system: HCT-15 colon
[54] = system: MALME-3M melanoma
[55] = system: A498 renal
[56] = system: OVCAR-8 ovarian
[57] = system: NCI/ADR-RES ovarian

Question: Which results are given for CCn1c(O)c(C(=O)NC(C)c2ccc([N+](=O)[O-])cc2)c(=O)n(CC)c1=S (configuration not stated)?
Answer: TGI [1]: 7.38 µM; TGI [2]: 4.45 µM; TGI [3]: 8.98 µM; TGI [4]: 10.9 µM; TGI [5]: 10.1 µM; TGI [6]: 11.7 µM; TGI [7]: 14.2 µM; TGI [8]: 6.04 µM; TGI [9]: 5.8 µM; TGI [10]: 5.34 µM; TGI [11]: 12.7 µM; TGI [12]: 10.7 µM; TGI [13]: 13.1 µM; TGI [14]: 3.6 µM; TGI [15]: 13.6 µM; TGI [16]: 6.77 µM; TGI [17]: 3.7 µM; TGI [18]: 8.48 µM; TGI [19]: 12.1 µM; TGI [20]: 11.2 µM; TGI [21]: 5.17 µM; TGI [22]: 11.3 µM; TGI [23]: 15 µM; TGI [24]: 5.58 µM; TGI [25]: 10.5 µM; TGI [26]: 17.6 µM; TGI [27]: 9.19 µM; TGI [28]: 3.29 µM; TGI [29]: 11.9 µM; TGI [30]: 16.6 µM; TGI [31]: 13.4 µM; TGI [32]: 6.54 µM; TGI [33]: 12 µM; TGI [34]: 4.63 µM; TGI [35]: 7.42 µM; TGI [36]: 10.2 µM; TGI [37]: 5.52 µM; TGI [38]: 10.8 µM; TGI [39]: 11.4 µM; TGI [40]: 13.6 µM; TGI [41]: 10.8 µM; TGI [42]: 11.9 µM; TGI [43]: 8.8 µM; TGI [44]: 17 µM; TGI [45]: 11.5 µM; TGI [46]: 15.3 µM; TGI [47]: 5.58 µM; TGI [48]: 2.72 µM; TGI [49]: 5.11 µM; TGI [50]: 10.5 µM; TGI [51]: 9.36 µM; TGI [52]: 15 µM; TGI [53]: 10.7 µM

Question: Which TGI [1] does the source give for c1ccc2c(c1)ccc1nc(-c3ccc4c(c3)OCO4)c3c(c12)CCC3 here?
Answer: > 100 µM

Question: And the TGI [2]?
Answer: > 100 µM

Question: What about the TGI [5] of the same compound?
Answer: > 100 µM

Question: What about the TGI [6] of the same compound?
Answer: > 100 µM

Question: What about the TGI [7] of the same compound?
Answer: > 100 µM

Question: What about the TGI [8] of the same compound?
Answer: > 100 µM

Question: What about the TGI [9] of the same compound?
Answer: > 100 µM

Question: And the TGI [54]?
Answer: > 100 µM

Question: And the TGI [55]?
Answer: > 100 µM

Question: And the TGI [10]?
Answer: > 100 µM

Question: And the TGI [11]?
Answer: > 100 µM

Question: And the TGI [12]?
Answer: > 100 µM

Question: And the TGI [13]?
Answer: > 100 µM

Question: And the TGI [14]?
Answer: > 100 µM

Question: What about the TGI [15] of the same compound?
Answer: > 100 µM

Question: What about the TGI [16] of the same compound?
Answer: > 100 µM

Question: And the TGI [17]?
Answer: > 100 µM

Question: And the TGI [19]?
Answer: > 100 µM

Question: And the TGI [20]?
Answer: > 100 µM

Question: What about the TGI [21] of the same compound?
Answer: > 100 µM

Question: And the TGI [23]?
Answer: > 100 µM

Question: And the TGI [24]?
Answer: > 100 µM

Question: What about the TGI [25] of the same compound?
Answer: > 100 µM

Question: And the TGI [26]?
Answer: > 100 µM

Question: And the TGI [27]?
Answer: > 100 µM

Question: And the TGI [28]?
Answer: > 100 µM

Question: What about the TGI [29] of the same compound?
Answer: > 100 µM

Question: And the TGI [56]?
Answer: > 100 µM

Question: What about the TGI [57] of the same compound?
Answer: > 100 µM

Question: What about the TGI [30] of the same compound?
Answer: > 100 µM

Question: And the TGI [31]?
Answer: > 100 µM

Question: What about the TGI [32] of the same compound?
Answer: > 100 µM

Question: And the TGI [34]?
Answer: > 100 µM

Question: And the TGI [35]?
Answer: > 100 µM

Question: What about the TGI [36] of the same compound?
Answer: > 100 µM

Question: And the TGI [37]?
Answer: > 100 µM

Question: And the TGI [38]?
Answer: > 100 µM

Question: What about the TGI [40] of the same compound?
Answer: > 100 µM

Question: What about the TGI [41] of the same compound?
Answer: > 100 µM

Question: And the TGI [42]?
Answer: > 100 µM

Question: What about the TGI [43] of the same compound?
Answer: > 100 µM

Question: And the TGI [45]?
Answer: > 100 µM

Question: What about the TGI [46] of the same compound?
Answer: > 100 µM

Question: What about the TGI [47] of the same compound?
Answer: > 100 µM

Question: And the TGI [48]?
Answer: > 100 µM

Question: And the TGI [50]?
Answer: > 100 µM

Question: And the TGI [51]?
Answer: > 100 µM

Question: And the TGI [52]?
Answer: > 100 µM

Question: And the TGI [53]?
Answer: > 100 µM
